The values that follow come from patent US5242938A, “Derivatives of virginiamycin M1” (Merck & Co., Inc., priority 1992, dated 1993).

The target of assay [1] is T1, CCK-B (guinea pig cortex) (Cavia porcellus, UniProt H0VZC5).
T1 construct: guinea pig cortical preparations; from tissue; host or cells: guinea pig brain cortex membranes
T1 sequence (H0VZC5 1-426): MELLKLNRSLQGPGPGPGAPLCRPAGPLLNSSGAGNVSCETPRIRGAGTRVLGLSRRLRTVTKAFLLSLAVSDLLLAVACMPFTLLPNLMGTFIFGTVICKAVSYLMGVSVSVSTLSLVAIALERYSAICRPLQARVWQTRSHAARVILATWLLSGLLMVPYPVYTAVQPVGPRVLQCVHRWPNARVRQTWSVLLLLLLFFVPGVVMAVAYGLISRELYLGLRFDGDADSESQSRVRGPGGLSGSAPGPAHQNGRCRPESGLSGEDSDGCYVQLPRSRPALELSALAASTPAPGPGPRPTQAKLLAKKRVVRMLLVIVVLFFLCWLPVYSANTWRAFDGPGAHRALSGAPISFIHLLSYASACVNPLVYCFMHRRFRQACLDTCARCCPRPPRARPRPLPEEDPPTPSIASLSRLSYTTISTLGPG
Kind of assay: [125I]BHCCK-8 radioligand binding, guinea pig cortical preparation. As to conditions: read-out: CCK binding inhibition - IC50, [125I]BHCCK. As to the method:
(§1) The resulting supernatant was re-spun at 20,000×g for 20 minutes. […] Incubations were for 40 minutes at 4° C. and were terminated by filtration and washing with ice cold 100 mM saline. […] Incubations were for 30 minutes at room temperature and were terminated by filtration over GF/C filters and washing with 100 mM NaCl.

For assay [2], the target named is T1, CCK-B (guinea pig cortex). Kind of assay: [3H]L-365,260 CCK-B selective antagonist ligand binding, brain membranes. To be noted: for IC50: read-out: CCK binding inhibition - IC50, [3H]L-365,260. The procedure: as §1
For assay [3], the target named is T2, CCK-A (rat pancreas) (Rattus norvegicus, UniProt P30551).
T2 construct: from tissue; host or cells: rat pancreas
T2 sequence (P30551 1-444): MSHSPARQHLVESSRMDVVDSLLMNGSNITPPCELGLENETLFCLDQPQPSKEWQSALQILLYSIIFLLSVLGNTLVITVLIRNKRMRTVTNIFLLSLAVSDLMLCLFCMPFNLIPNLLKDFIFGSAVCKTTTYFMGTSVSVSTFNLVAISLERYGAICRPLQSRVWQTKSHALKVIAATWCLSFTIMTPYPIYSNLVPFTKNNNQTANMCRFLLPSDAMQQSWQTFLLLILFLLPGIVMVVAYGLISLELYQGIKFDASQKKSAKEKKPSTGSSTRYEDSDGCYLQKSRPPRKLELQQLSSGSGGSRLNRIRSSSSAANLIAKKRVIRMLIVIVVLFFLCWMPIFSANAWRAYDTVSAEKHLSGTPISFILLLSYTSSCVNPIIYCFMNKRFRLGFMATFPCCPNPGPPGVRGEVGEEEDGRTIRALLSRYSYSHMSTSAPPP
Kind of assay: [125I]BHCCK-8 radioligand binding, rat pancreatic preparation. As to conditions: read-out: CCK binding inhibition - IC50, [125I]BHCCK. The procedure: as §1

Assay [4] addresses T2, CCK-A (rat pancreas). In words: [3H]L-364,718 CCK-A selective antagonist ligand binding, pancreas. As to conditions: for IC50: read-out: CCK binding inhibition - IC50, [3H]L-364,718. The procedure: as §1
Another assay relates to Bacillus sp. (Mb 633). In words: Agar diffusion disc assay, Baci 633. Type of assay: cell-based. Put shortly: (§2)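 Serial dilutions from a 1 mg/ml methanol solution, 20 μl applied to 6 mm paper discs, dried, and placed on agar seeded with ~10^6 cfu. Overnight (~18 hours) incubation at 25° C; inhibition zone sizes measured to nearest mm, triplicate means; agar diffusion MIC determined per Barry.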
On the technique in general: In agar diffusion tests the substance spreads into inoculated agar from a disc or well.

The subject of assay [5] is Staphylococcus aureus (Mb 108, ATCC 6538P). In words: Agar diffusion disc assay, Sta 108. The class given is cell-based. To be noted: @ 20 g/disc. The gist of the method: as §2
Assay [6] deals with Bacillus subtilis (Mb 964, ATCC 6633). In words: Agar diffusion disc assay, Subt 964. Type of assay: cell-based. To be noted: @ 20 g/disc. Put shortly: as §2
The test system of assay [7] is Micrococcus luteus (Mb 1101, ATCC 9341). In words: Agar diffusion disc assay, Micr 1101. The class given is cell-based. As to conditions: for MIC: read-out: Agar Diffusion MIC versus Micrococcus luteus; for Mean of triplicate zone size versus Micrococcus luteus: 25° C., ~18 hours. The gist of the method:
as §2

Assay [8] deals with Staphylococcus aureus (Mb 2983). Kind of assay: Agar diffusion disc assay, Sta 2983. The class given is cell-based. To be noted: @ 20 g/disc. Put shortly: as §2
In assay [9] the test system is Corynebacterium pseudodiphtheriticum (Mb 261, ATCC 9742). Kind of assay: Agar diffusion disc assay, Cory 261. Further details: Inhibition zone diameter, Cory 261: dose or concentration left out as unconfirmed. The class given is cell-based. The gist of the method:
as §2

Assay [10] concerns Streptococcus faecium (Mb 2820). In words: Agar diffusion disc assay, Str 2820. The class given is cell-based. Further details: Inhibition zone diameter, Str 2820: dose or concentration left out as unconfirmed. Put shortly:
as §2

Assay [11] deals with Streptococcus agalactiae (Mb 2875). Kind of assay: Agar diffusion disc assay, Str 2875. Type of assay: cell-based. The gist of the method: as §2
Assay [12] deals with Salmonella gallinarum (Mb 1287). Kind of assay: Agar diffusion disc assay, Salm 1287. Type of assay: cell-based. As to conditions: @ 20 g/disc. The gist of the method: as §2
Assay [13] deals with Escherichia coli (Mb 1418). In words: Agar diffusion disc assay, Coli 1418. Type of assay: cell-based. To be noted: @ 20 g/disc. The gist of the method: as §2
The subject of assay [14] is Pseudomonas stutzeri (Mb 1231, ATCC 11607). Kind of assay: Agar diffusion disc assay, Pseu 1231. Type of assay: cell-based. To be noted: @ 20 g/disc. Put shortly:
as §2

Assay [15] deals with En terobacter aergenes (Mb 835). Kind of assay: Agar diffusion disc assay, Ent 835. Type of assay: cell-based. To be noted: @ 20 g/disc. Put shortly:
as §2

Molecules are shown by their SMILES. In brackets after ≈: the same amount, converted by molar mass. Read-outs that look alike come from different tables or passages of the source.

By IC50 is commonly meant the concentration needed to halve the response being measured. The MIC is the least concentration at which growth counts as inhibited. As to `CC1=C\[C@@H](OC(=O)Nc2cccc(C)c2)CC(=O)Cc2nc(co2)C(=O)N2CCC=C2C(=O)O[C@H](C(C)C)[C@H](C)/C=C/C(=O)NC\C=C\1` [Example 12], the concentration for half-maximal inhibition (IC50) in [1] was determined as 400 nM; in assay [2], 3000 nM; on CCK-A (rat pancreas) [3] it was 1900 nM; at CCK-A (rat pancreas) [4] it was 8000 nM. Besides, in assay [2], the “A.R. = agonist ratio = IC50([3H]L365,260)/IC50([125I]CCK)” value came to 7.5. For the same compound, the “A.R. = agonist ratio” value at CCK-A (rat pancreas) [4] ([3H]L-364,718 / [125I]BHCCK) amounted to 4.2. For the same compound, the zone of inhibition at 20 µg/disc was found to be 0 mm in the assay with Bacillus sp. (Mb 633) (Bacillus, 18 h, read-out: Inhibition zone diameter, Baci 633, @ 20 g/disc); 0 mm in assay [5] (Staphylococcus aureus, ATCC6538P, 18 h, read-out: Inhibition zone diameter, Sta 108); 0 mm in assay [6] (Bacillus subtilis, ATCC6633, 18 h, read-out: Inhibition zone diameter, Subt 964); 9 mm in assay [7] (Micrococcus luteus, ATCC9341, 18 h, @ 20 g/disc, read-out: Inhibition zone diameter, Micr 1101); 0 mm in [8] (Staphylococcus aureus, 18 h, read-out: Inhibition zone diameter, Sta 2983); 0 mm in assay [9] (Corynebacterium pseudodiphtheriticum, ATCC9742, 18 h, @ 20 g/disc, read-out: Inhibition zone diameter, Cory 261). Further, the zone of inhibition at 20 µg/disc in [10] (Enterococcus faecium, 18 h, @ 20 g/disc, read-out: Inhibition zone diameter, Str 2820) is 0 mm; in assay [11] (Streptococcus agalactiae, 18 h, @ 20 g/disc, read-out: Inhibition zone diameter, Str 2875), 0 mm; in [12] (Salmonella enterica, GALLINARUM, 18 h, read-out: Inhibition zone diameter, Salm 1287), 0 mm; in assay [13] (Escherichia coli, 18 h, read-out: Inhibition zone diameter, Coli 1418), 0 mm; in [14] (Stutzerimonas stutzeri, ATCC11607, 18 h, read-out: Inhibition zone diameter, Pseu 1231), 0 mm; in [15] (18 h, read-out: Inhibition zone diameter, Ent 835), 0 mm. In addition, the MIC in assay [7] (Micrococcus luteus, ATCC9341, 18 h) was above 243 µM.
Turning to `CC1=C\[C@@H](O)CC(O)Cc2nc(co2)C(=O)N2CCC=C2C(=O)O[C@H](C(C)C)[C@H](C)/C=C/C(=O)NC\C=C\1` (single isomer, unassigned) [Example 14B], the IC50 in [1] was 400 nM; in [2], 530 nM; on CCK-A (rat pancreas) [3] it was above 3000 nM; on CCK-A (rat pancreas) [4] it was above 3000 nM. For the same compound, the “A.R. = agonist ratio = IC50([3H]L365,260)/IC50([125I]CCK)” value in assay [2] is 1. Also, the “Inhibition zone diameter, Baci 633” value in the assay on Bacillus sp. (Mb 633) (@ 20 g/disc) was determined as 0 mm. Moreover, the “Inhibition zone diameter, Sta 108” value in [5] was found to be 22 mm. Further, the “Inhibition zone diameter, Subt 964” value in assay [6] is 0 mm. Also, the “Mean of triplicate zone size versus Micrococcus luteus” value in assay [7] (1.25 μg/disc) is reported as 22 mm; in [7] (2.50 μg/disc), 25 mm; in assay [7] (5.00 μg/disc) it was 28 mm; in [7] (10.0 μg/disc) it was 30 mm; in [7] (20.0 μg/disc) it was 32 mm. The “Inhibition zone diameter, Micr 1101” value in [7] (@ 20 µg/disc) was 35 mm. In [7], the MIC is 0.24 µM (≈ 0.127 µg/mL). For the same compound, in assay [8], the “Inhibition zone diameter, Sta 2983” value was 11 mm. The “Inhibition zone diameter, Cory 261” value in [9] is given as 26 mm. In addition, in assay [10], the “Inhibition zone diameter, Str 2820” value was found to be 15 mm. Also, the “Inhibition zone diameter, Str 2875” value in assay [11] (@ 20 µg/disc) came to 18 mm. In addition, in assay [12], the “Inhibition zone diameter, Salm 1287” value came out at 0 mm. For the same compound, the “Inhibition zone diameter, Coli 1418” value in assay [13] came out at 0 mm. In addition, in assay [14], the “Inhibition zone diameter, Pseu 1231” value is recorded as 0 mm. In addition, the “Inhibition zone diameter, Ent 835” value in assay [15] was 0 mm.
